Earlier results as cited in patent publication US20230393151A1, “Precision Targeted Retromer Therapeutics for the Treatment of Neurodegenerative Diseases and Disorders” (The Trustees of Columbia University in the City of New York, priority 2020, published 2023).

Legend:
[1] = target: purified, reconstituted heterotrimeric complex (retromer) (Homo sapiens, UniProt Q96QK1+Q9UBQ0); settings: incubated with complex at various concentrations; Mecozzi et al. 2014
VPS35 and VPS26 = target: T1, VPS35 and VPS26 (Mus musculus, UniProt Q9EQH3+Q9QZ88); settings: cultured primary neurons; Mecozzi et al. 2014
T1 construct: endogenous in cells

In the case of `[H]/N=C(\N)SCc1ccc(CS/C(N)=N/[H])s1` [R55], the “Thermal stability of retromer complex” value [1] is given as “improved thermal stability significantly” and the “VPS35 and VPS26 protein levels” value (VPS35 and VPS26) is given as “increased”.
